Measurements as given in patent EP4741392A1, “1H-PYRAZOLO[4,3-C]PYRIDINE COMPOUND, AND COMPOSITION THEREOF AND USE THEREOF” (Shenzhen TargetRx Co., Ltd., priority 2023, dated 2025).

Legend:
Assay type in all cases: cell-based
OCI-LY10 cells = assay: Viability assay of OCI-LY10 cells (CTG); details: Homo sapiens, OCI-Ly10, 120 h, cell viability, read-out: OCl-Ly10
Protocol: (§1) The in vitro antiproliferative activity of the compounds of the present disclosure against TMD8 cells and OCI-LY10 cells was assayed using CTG (Cell Titer-Glo) luminescent cell viability assay. The specific assay methods were as follows. • a) TMD8 cells were cultured at 37 °C and 5% CO2 in complete medium [RPMI 1640 (supplier Gibco, product number 22400-089) + 10% FBS (supplier Gibco, product number 10091-148) + 1% P/S (supplier Hyclone, product number SV30010)]; OCI-LY10 cells were cultured at 37 °C and 5% CO2 in medium [IMDM (supplier Gibco, product number 31980-030) + 20% FBS (supplier Gibco, product number 10091-148) + 1% P/S (supplier Hyclone, product number SV30010) + 0.05 mM 2-Mercaptoethanol (supplier Sigma, product number M6250)]. • b) Cells in the logarithmic growth phase were harvested, and the total cell count and viable cell count were determined using a Vi-cell cell counter (supplier: BECKMAN COULTER, product number 2785198). • c) Cell density was adjusted using complete culture medium. Then, the cells were inoculated at 1500 cells per well in a 384-well cell culture plate (supplier Greiner, product number 781090). • d) The cells in the 384-well plate were cultured at 37 °C and 5% CO2 overnight. • e) A 10-fold drug solution was prepared, and then the serially diluted compound was transferred to the corresponding assay wells of the 384-well cell plate so that the final assay concentration was 1000 nM, with 9 concentrations, 3-fold dilutions, and triplicates for each drug concentration. • f) The cells in the 384-well plate with the drug added were cultured at 37 °C and 5% CO2 for another 120 hours. • g) The cells were removed from the incubator, and allowed to equilibrate at room temperature for 30 minutes. The cell state and compound solubility were observed under a microscope. • h) An equal volume of CellTiterGlo solution (supplier Promega, product number G7573) was added to each well, and the plate was incubated at room temperature for 30 minutes. • i) Then, the luminescent signal value was detected on an EnVision instrument (supplier PerkinElmer, product number 2441715).
(§2) The data were analyzed using XL-fit software (supplier: ID Business Solutions Ltd., software version: XL fit 5.5.0.5). Nonlinear regression was performed using X=Log(X), and the X values were transformed using a four-parameter Logistic model 205, from which the IC50 values were calculated. Inhibition rate % = (Max−samplevalue)/Max*100.(Max:DMSOnegativecontrol) [formula]

TMD8 cells = assay: Viability assay of TMD8 cells (CTG); details: Homo sapiens, cell viability, 120 hours
Protocol: as §1, §2

[1] = tested on: Ba/F3-ETV6-BTK-T474I cells; assay: Viability assay of Ba/F3-ETV6-BTK-T474I cells (CTG); details: Mus musculus, BaF3, cell viability, 72 hours
Protocol: The in vitro antiproliferative activity of the compounds of the present disclosure against Ba/F3-ETV6-BTK-T474I cells was assayed using CTG luminescent cell viability assay. The specific assay methods were as follows: • a) Ba/F3-ETV6-BTK-T474I cells were cultured at 37 °C and 5% CO2 in complete medium [RPMI 1640 (supplier Gibco, product number 22400-089) + 10% FBS (supplier Gibco, product number 10091-148)]. • b) Cells in the logarithmic growth phase were harvested, and cell counting was performed using a […]. Trypan blue exclusion test was used to determine the cell viability, ensuring that the cell viability was above 90%. • c) Cell density was adjusted using complete culture medium. Then, the cells were inoculated at 90 µL, a total of 3000 cells per well in a 96-well cell culture plate (supplier: Shanghai Jing An Biotechnology Co., Ltd., product number J09601). • d) The cells in the 96-well plate were cultured at 37 °C and 5% CO2. • e) A 10-fold drug solution was prepared, and then 10 µL of each serially diluted compound was transferred to the corresponding assay wells of the 96-well cell plate so that the final assay concentration was 1000 nM, with 9 concentrations, 3.16-fold dilutions, and triplicates for each drug concentration. • f) The cells in the 96-well plate with the drug added were cultured at 37 °C and 5% CO2 for another 72 hours. Then, CTG analysis was performed. • g) The CTG reagent was melted, and the cell plate was equilibrated at room temperature for 30 minutes. • h) An equal volume of CTG solution was added to each well. • i) The plate was shaken on an orbital shaker for 5 minutes to lyse the cells. • j) The cell plate was placed at room temperature for 20 minutes to stabilize the luminescent signal. • k) The luminescent signal values were read and the data were collected.
The data were analyzed using GraphPad Prism 7.0 software. Nonlinear S-curve regression was used to fit the data to give a dose-response curve, from which the IC50 values were calculated. [formula]

Row | Structure (SMILES) | IC50 (OCI-LY10 cells) [nM] | IC50 [1] [nM] | IC50 (TMD8 cells) [nM]
1 | COc1ccc(F)cc1C(=O)NCc1ccc(-c2ncc(-c3ccc(F)cn3)c3[nH]nc(N)c23)cc1 [Example 21, N-(4-(3-amino-7-(5-fluoropyridin-2-yl)-1H-pyrazolo[4,3-c]pyridin-4-yl)benzyl)-5-fluoro-2-methoxybenzamide] | 5 to 10 |  | ≤ 5
2 | COc1ccc(F)cc1C(=O)NCc1ccc(-c2ncc(-c3ccc(S(C)(=O)=O)cn3)c3[nH]nc(N)c23)cc1 [Example 35, N-(4-(3-amino-7-(5-(methylsulfonyl)pyridin-2-yl)-1H-pyrazolo[4,3-c]pyridin-4-yl)benzyl)-5-fluoro-2-methoxybenzamide] | ≤ 5 |  | ≤ 5
3 | COc1ccc(F)cc1C(=O)NCc1ccc(-c2ncc(-c3ccc(C4COC4)cn3)c3[nH]nc(N)c23)cc1 [Example 43, N-(4-(3-amino-7-(5-(oxetan-3-yl)pyridin-2-yl)-1H-pyrazolo[4,3-c]pyridin-4-yl)benzyl)-5-fluoro-2-methoxybenzamide] | ≤ 5 | 5 to 10 | ≤ 5
4 | COc1ccc(F)cc1C(=O)NCc1ccc(-c2ncc(-c3ccn4nccc4n3)c3[nH]nc(N)c23)cc1 [Example 46, N-(4-(3-amino-7-(pyrazolo[1,5-a]pyrimidin-5-yl)-1H-pyrazolo[4,3-c]pyridin-4-yl)benzyl)-5-fluoro-2-methoxybenzamide] | 5 to 10 | > 50 | ≤ 5
5 | COc1ccc(F)cc1C(=O)NCc1ccc(-c2ncc(-c3ccc(C(=O)N4CCOCC4)cn3)c3[nH]nc(N)c23)cc1 [Example 52, N-(4-(3-amino-7-(5-(morpholine-4-carbonyl)pyridin-2-yl)-1H-pyrazolo[4,3-c]pyridin-4-yl)benzyl)-5-fluoro-2-methoxybenzamide] | ≤ 5 | ≤ 5 | ≤ 5
6 | COc1ccc(F)cc1C(=O)NCc1ccc(-c2ncc(-c3ccc(C(=O)N4C[C@H](C)O[C@@H](C)C4)cn3)c3[nH]nc(N)c23)cc1 [Example 53, N-(4-(3-amino-7-(5-((2S,6S)-2,6-dimethylmorpholine-4-carbonyl)pyridin-2-yl)-1H-pyrazolo[4,3-c]pyridin-4-yl)benzyl)-5-fluoro-2-methoxybenzamide] | ≤ 5 | ≤ 5 | ≤ 5
7 | COCCOc1ccc(-c2cnc(-c3ccc(CNC(=O)c4cc(F)ccc4OC)cc3)c3c(N)n[nH]c23)nc1 [Example 59, N-(4-(3-amino-7-(5-(2-methoxyethoxy)pyridin-2-yl)-1H-pyrazolo[4,3-c]pyridin-4-yl)benzyl)-5-fluoro-2-methoxybenzamide] | ≤ 5 | 5 to 10 | ≤ 5
8 | COc1ccc(F)cc1C(=O)NCc1ccc(-c2nc(C(F)F)c(-c3ncccn3)c3[nH]nc(N)c23)cc1 [Example 85, N-(4-(3-amino-6-(difluoromethyl)-7-(pyrimidin-2-yl)-1H-pyrazolo[4,3-c]pyridin-4-yl)benzyl)-5-fluoro-2-methoxybenzamide] | 10 to 50 |  | ≤ 5
9 | COc1ccc(F)cc1C(=O)NCc1ccc(-c2nc(C3CCSCC3)cc3[nH]nc(N)c23)cc1 [Example 91, N-(4-(3-amino-6-(tetrahydro-2H-thiopyran-4-yl)-1H-pyrazolo[4,3-c]pyridin-4-yl)benzyl)-5-fluoro-2-methoxybenzamide] | ≤ 5 |  | ≤ 5

Second part, led by results:

Row | IC50 (OCI-LY10 cells) [nM] | IC50 [1] [nM] | Structure (SMILES) | IC50 (TMD8 cells) [nM]
10 | ≤ 5 |  | COc1ccc(F)cc1C(=O)NCc1ccc(-c2ncc(-c3ccn(C)n3)c3[nH]nc(N)c23)cc1 [Example 23, N-(4-(3-amino-7-(1-methyl-1H-pyrazol-3-yl)-1H-pyrazolo[4,3-c]pyridin-4-yl)benzyl)-5-fluoro-2-methoxybenzamide] | ≤ 5
11 | 10 to 50 |  | COc1ccc(F)cc1C(=O)NCc1ccc(-c2ncc(-c3ccc(C(F)(F)F)cn3)c3[nH]nc(N)c23)cc1 [Example 24, N-(4-(3-amino-7-(5-(trifluoromethyl)pyridin-2-yl)-1H-pyrazolo[4,3-c]pyridin-4-yl)benzyl)-5-fluoro-2-methoxybenzamide] | ≤ 5
12 | ≤ 5 | 10 to 50 | COc1ccc(F)cc1C(=O)NCc1ccc(-c2ncc(-c3ccc(C)cn3)c3[nH]nc(N)c23)cc1 [Example 37, N-(4-(3-amino-7-(5-methylpyridin-2-yl)-1H-pyrazolo[4,3-c]pyridin-4-yl)benzyl)-5-fluoro-2-methoxybenzamide] | ≤ 5
13 | ≤ 5 | 5 to 10 | COc1ccc(F)cc1C(=O)NCc1ccc(-c2ncc(-c3cc4ncccn4n3)c3[nH]nc(N)c23)cc1 [Example 44, N-(4-(3-amino-7-(pyrazolo[1,5-a]pyrimidin-2-yl)-1H-pyrazolo[4,3-c]pyridin-4-yl)benzyl)-5-fluoro-2-methoxybenzamide] | ≤ 5
14 | ≤ 5 | 5 to 10 | COc1ccc(F)cc1C(=O)NCc1ccc(-c2ncc(-c3ccc(OCCN(C)C)cn3)c3[nH]nc(N)c23)cc1 [Example 60, N-(4-(3-amino-7-(5-(2-(dimethylamino)ethoxy)pyridin-2-yl)-1H-pyrazolo[4,3-c]pyridin-4-yl)benzyl)-5-fluoro-2-methoxybenzamide] | ≤ 5
15 | ≤ 5 | ≤ 5 | COc1ccc(F)cc1C(=O)NCc1ccc(-c2ncc(-c3ccc(OCCN4CCOCC4)cn3)c3[nH]nc(N)c23)cc1 [Example 61, N-(4-(3-amino-7-(5-(2-morpholinoethoxy)pyridin-2-yl)-1H-pyrazolo[4,3-c]pyridin-4-yl)benzyl)-5-fluoro-2-methoxybenzamide] | ≤ 5
16 | ≤ 5 | 10 to 50 | COc1ccc(F)cc1C(=O)NCc1ccc(-c2ncc(-c3ccc(OCCN4CCCC4)cn3)c3[nH]nc(N)c23)cc1 [Example 62, N-(4-(3-amino-7-(5-(2-(pyrrolidin-1-yl)ethoxy)pyridin-2-yl)-1H-pyrazolo[4,3-c]pyridin-4-yl)benzyl)-5-fluoro-2-methoxybenzamide] | ≤ 5
17 | 10 to 50 |  | COc1ccc(F)cc1C(=O)NCc1ccc(-c2nc(C)c(-c3ncccn3)c3[nH]nc(N)c23)cc1 [Example 84, N-(4-(3-amino-6-methyl-7-(pyrimidin-2-yl)-1H-pyrazolo[4,3-c]pyridin-4-yl)benzyl)-5-fluoro-2-methoxybenzamide] | 5 to 10
18 | ≤ 5 |  | C=CC(=O)N1CCCC(c2cc3[nH]nc(N)c3c(-c3ccc(CNC(=O)c4cc(F)ccc4OC)cc3)n2)C1 (stereo not drawn) [Example 96, N-(4-(6-(1-acryloylpiperidin-3-yl)-3-amino-1H-pyrazolo[4,3-c]pyridin-4-yl)benzyl)-5-fluoro-2-methoxybenzamide] | ≤ 5
19 | ≤ 5 |  | COc1ccc(F)cc1C(=O)NCc1ccc(-c2nc([C@H]3CC[C@H](CO)CC3)cc3[nH]nc(N)c23)cc1 [Example 117, N-(4-(3-amino-6-((1r,4r)-4-(hydroxymethyl)cyclohexyl)-1H-pyrazolo[4,3-c]pyridin-4-yl)benzyl)-5-fluoro-2-methoxybenzamide] | ≤ 5
